Laboratory results reported in article PMC9686977, “Understanding the Role of Self-Assembly and Interaction with Biological Membranes of Short Cationic Lipopeptides in the Effective Design of New Antibiotics” (Antibiotics, 2022).
In brackets after ≈: the same amount, converted by molar mass. Residues, ends and D or L forms follow the SMILES beside them. *: point of attachment. Palmitoyl = CCCCCCCCCCCCCCCC(=O)*; Myristoyl = CCCCCCCCCCCCCC(=O)*; Lauroyl = CCCCCCCCCCCC(=O)*

Columns and labels:
[1] = system: Escherichia coli ATCC 25922; type: cell-based; conditions: ATCC 25922, 18 h
Description: (§1) The minimum inhibitory concentration (MIC) was determined according to the procedure recommended by the Clinical Laboratory Standards Institute guidelines. Reference strains of bacteria: Staphylococcus aureus ATCC 25923, Staphylococcus epidermidis ATCC 14990, Escherichia coli ATCC 25922, Pseudomonas aeruginosa ATCC 9027, and fungus Candida albicans ATCC 10231 were obtained from Polish Collection of Microorganisms (PCM, Polish Academy of Sciences, Wroclaw, Poland). […] The plates with the compounds were incubated for 18 h at 37 °C for bacteria and 48 h at 25 °C for fungi. The minimum inhibitory concentration was assumed as the lowest concentration of a lipopeptide at which the observable growth was inhibited.

[2] = system: Staphylococcus aureus ATCC 25923; type: cell-based; conditions: ATCC 25923, 18 h
Description: as §1

[3] = system: Pseudomonas aeruginosa ATCC 9027; type: cell-based; conditions: ATCC 9027, 18 h
Description: as §1

[4] = system: Candida albicans ATCC 10231; type: cell-based; conditions: ATCC 10231, 48 h
Description: as §1

[5] = system: Staphylococcus epidermidis ATCC 14990; type: cell-based; conditions: ATCC 14990, 18 h
Description: as §1

[6] = system: human keratinocytes HaCaT; type: cell-based; conditions: 48 h
Description: The cytotoxicity of the compounds was evaluated on the basis of a tetrazolium salt reduction test (MTT) performed along the lines of human keratinocytes HaCaT. The keratinocytes were planted in 96-well plates in a medium supplemented with serum. After 24 h, the medium was changed to a serum-free DMEM one containing graded concentrations of peptides. The cells were incubated with peptides for 48 h. Thereafter, MTT was added in order to reach a final concentration of 0.5 mg/mL, and the plates were incubated at 37 °C for 4 h. Then, the MTT reading was analysed using a plate reader. The absorbance at 630 nm (background absorbance) was subtracted from that at 570 nm for each well.

[7] = different lipopeptide concentrations

CCCCCCCCCCCCCCCC(=O)N[C@@H](CCCCN)C(=O)NCCC(=O)N[C@@H](CCCCN)C(N)=O [Peptide C16-KβAK-NH2]
MIC E. coli [1]: 64 µg/mL (≈ 110 µM) | MIC S. aureus [2]: 128 µg/mL (≈ 220 µM) | MIC P. aeruginosa [3]: 64 µg/mL (≈ 110 µM) | MIC C. albicans [4]: 4 µg/mL (≈ 6.86 µM) | MIC S. epidermidis [5]: 2 µg/mL (≈ 3.43 µM) | IC50 on human keratinocytes (HaCaT) [6]: 25.11 ± 6.17 µg/mL (≈ 43.1 µM)

CCCCCCCCCCCCCC(=O)N[C@@H](CCCCN)C(=O)N[C@@H](CCCCN)C(=O)N[C@@H](CCCCN)C(=O)N[C@@H](CCCNC(=N)N)C(N)=O [Peptide C14-KKKR-NH2] (Myristoyl-KKKR-NH2)
MIC E. coli [1]: 128 µg/mL (≈ 167 µM) | MIC S. aureus [2]: 32 µg/mL (≈ 41.7 µM) | MIC P. aeruginosa [3]: 128 µg/mL (≈ 167 µM) | MIC C. albicans [4]: 128 µg/mL (≈ 167 µM) | MIC S. epidermidis [5]: ≤1 µg/mL | IC50 on human keratinocytes (HaCaT) [6]: 32.5 ± 10.0 µg/mL (≈ 42.3 µM)

CCCCCCCCCCCCCCCC(=O)N[C@@H](CCCCN)C(=O)N[C@@H](CCCCN)C(=O)N[C@@H](CCCCN)C(=O)N[C@@H](CCCCN)C(N)=O [Peptide C16-KKKK-NH2] (Palmitoyl-KKKK-NH2)
MIC E. coli [1]: 16 µg/mL (≈ 20.8 µM) | MIC S. aureus [2]: 8 µg/mL (≈ 10.4 µM) | MIC P. aeruginosa [3]: 16 µg/mL (≈ 20.8 µM) | MIC C. albicans [4]: 16 µg/mL (≈ 20.8 µM) | MIC S. epidermidis [5]: 8 µg/mL (≈ 10.4 µM) | IC50 on human keratinocytes (HaCaT) [6]: 23.52 ± 1.30 µg/mL (≈ 30.6 µM)

CCCCCCCCCCCCCC(=O)N[C@@H](CCCCN)C(=O)N[C@@H](CCCNC(=N)N)C(=O)N[C@@H](CCCCN)C(=O)N[C@@H](CCCCN)C(N)=O [Peptide C14-KRKK-NH2] (Myristoyl-KRKK-NH2)
MIC E. coli [1]: 64 µg/mL (≈ 83.3 µM) | MIC S. aureus [2]: 16 µg/mL (≈ 20.8 µM) | MIC P. aeruginosa [3]: 64 µg/mL (≈ 83.3 µM) | MIC C. albicans [4]: 128 µg/mL (≈ 167 µM) | MIC S. epidermidis [5]: ≤1 µg/mL | IC50 on human keratinocytes (HaCaT) [6]: 20.38 ± 4.12 µg/mL (≈ 26.5 µM)

CCCCCCCCCCCCCCCC(=O)N[C@@H](CCCCN)C(=O)NCC(=O)N[C@@H](CCCCN)C(N)=O [Peptide C16-KGK-NH2] (Palmitoyl-Lys-Gly-Lys-NH2)
MIC E. coli [1]: 8 µg/mL (≈ 14.1 µM) | MIC S. aureus [2]: 16 µg/mL (≈ 28.1 µM) | MIC P. aeruginosa [3]: 64 µg/mL (≈ 113 µM) | MIC C. albicans [4]: 8 µg/mL (≈ 14.1 µM) | MIC S. epidermidis [5]: 4 µg/mL (≈ 7.03 µM) | IC50 on human keratinocytes (HaCaT) [6]: 7.41 ± 3.05 µg/mL (≈ 13 µM)

CCCCCCCCCCCCCCCC(=O)N[C@@H](CCCNC(=N)N)C(=O)N[C@@H](CCCNC(=N)N)C(=O)N[C@@H](CCCNC(=N)N)C(=O)N[C@@H](CCCNC(=N)N)C(N)=O [Peptide C16-RRRR-NH2] (Palmitoyl-RRRR-NH2)
aggregate size from self-diffusion coefficients (PFG NMR), compared with C16-KKKK-NH2 [7]: distinctly larger aggregates

CCCCCCCCCCCC(=O)N[C@@H](CCCCN)C(=O)N[C@@H](CCCCN)C(=O)N[C@@H](CCCCN)C(=O)N[C@@H](CCCCN)C(N)=O [Peptide C12-KKKK-NH2] (Lauroyl-KKKK-NH2)
MIC E. coli [1]: 512 µg/mL (≈ 719 µM) | MIC S. aureus [2]: 64 µg/mL (≈ 89.9 µM) | MIC P. aeruginosa [3]: 256 µg/mL (≈ 360 µM) | MIC C. albicans [4]: >512 µg/mL | MIC S. epidermidis [5]: 16 µg/mL (≈ 22.5 µM)

CCCCCCCCCCCC(=O)N[C@@H](CCCCN)C(=O)N[C@@H](CCCNC(=N)N)C(=O)N[C@@H](CCCCN)C(=O)N[C@@H](CCCCN)C(N)=O [Peptide C12-KRKK-NH2] (Lauroyl-KRKK-NH2)
MIC E. coli [1]: 512 µg/mL (≈ 692 µM) | MIC S. aureus [2]: 64 µg/mL (≈ 86.5 µM) | MIC P. aeruginosa [3]: 512 µg/mL (≈ 692 µM) | MIC C. albicans [4]: 512 µg/mL (≈ 692 µM) | MIC S. epidermidis [5]: ≤1 µg/mL

CCCCCCCCCCCCCCCC(=O)N[C@@H](CCCCN)C(=O)N[C@@H](CCCCN)C(N)=O [Peptide C16-KK-NH2]
MIC E. coli [1]: 8 µg/mL (≈ 15.6 µM) | MIC S. aureus [2]: 8 µg/mL (≈ 15.6 µM) | MIC P. aeruginosa [3]: 128 µg/mL (≈ 250 µM) | MIC C. albicans [4]: 4 µg/mL (≈ 7.82 µM) | MIC S. epidermidis [5]: 4 µg/mL (≈ 7.82 µM) | IC50 on human keratinocytes (HaCaT) [6]: 2.5 ± 0.8 µg/mL (≈ 4.88 µM)

CCCCCCCCCCCCCCCCCC(=O)N[C@@H](CCCCN)C(=O)N[C@@H](CCCCN)C(N)=O [Peptide C18-KK-NH2]
MIC E. coli [1]: 128 µg/mL (≈ 237 µM) | MIC S. aureus [2]: 64 µg/mL (≈ 119 µM) | MIC P. aeruginosa [3]: 64 µg/mL (≈ 119 µM) | MIC C. albicans [4]: 4 µg/mL (≈ 7.41 µM) | MIC S. epidermidis [5]: 4 µg/mL (≈ 7.41 µM) | IC50 on human keratinocytes (HaCaT) [6]: 0.69 ± 0.001 µg/mL (≈ 1.28 µM)

CCCCCCCCCCCCCC(=O)N[C@@H](CCCCN)C(=O)N[C@@H](CCCCN)C(=O)N[C@@H](CCCCN)C(=O)N[C@@H](CCCCN)C(N)=O [Peptide C14-KKKK-NH2] (Myristoyl-KKKK-NH2)
MIC E. coli [1]: 128 µg/mL (≈ 173 µM) | MIC S. aureus [2]: 32 µg/mL (≈ 43.2 µM) | MIC P. aeruginosa [3]: 64 µg/mL (≈ 86.5 µM) | MIC C. albicans [4]: 128 µg/mL (≈ 173 µM) | MIC S. epidermidis [5]: 2 µg/mL (≈ 2.7 µM) | IC50 on human keratinocytes (HaCaT) [6]: 15.63 ± 0.74 µg/mL (≈ 21.1 µM)
